Data on 20 compounds can be found in patent US20210169892A1, “MODULATORS OF THE INTEGRATED STRESS PATHWAY” (Calico Life Sciences LLC, priority 2017, published 2021).

Molecules are shown by their SMILES.

This assay relates to HEK293T cells carrying the ATF4 luciferase reporter. Nature of the assay: ATF4-Luc assay (in vitro model of vanishing white matter disease). The class given is cell-based. Particulars: Homo sapiens, HEK-293T; HEK293T cells with ATF4 luciferase reporter, 1 μg/mL tunicamycin, 7 hours, One Glo luminescence. As for the experimental part:
In order to test exemplary compounds of the invention in a cellular context, a stable VWMD cell line was first constructed. The ATF4 reporter was prepared by fusing the human full-length ATF4 5′-UTR (NCBI Accession No. BC022088.2) in front of the firefly luciferase (FLuc) coding sequence lacking the initiator methionine as described in Sidrauski et al (eLife 2013). The construct was used to produce recombinant retroviruses using standard methods and the resulting viral supernatant was used to transduce HEK293T cells, which were then subsequently selected with puromycin to generate a stable cell line.
HEK293T cells carrying the ATF4 luciferase reporter were plated on polylysine coated 384-well plates (Greiner Bio-one) at 30,000 cells per well. Cells were treated the next day with 1 μg/mL tunicamycin and 200 nM of a compound of Formula (I) for 7 hours. Luminescence was measured using One Glo (Promega) as specified by the manufacturer. Cells were maintained in DMEM with L-glutamine supplemented with 10% heat-inactivated FBS (Gibco) and Antibiotic-Antimycotic solution (Gibco).
Table 2 below summarizes the EC50 data obtained using the ATF4-Luc assay for exemplary compounds of the invention.

Regarding `O=C(COc1ccc(Cl)c(F)c1)NC12CCC(NC(=O)C3Cc4ccccc4O3)(CC1)C(O)C2` (centres unmarked) [Compound 129, N-{4-[2-(4-chloro-3-fluorophenoxy)acetamido]-2-hydroxybicyclo[2.2.2]octan-1-yl}-2,3-dihydro-1-benzofuran-2-carboxamide], the concentration for a half-maximal effect (EC50) was in the range of 250 to 500 nM. Under `COC(=O)CNC1CC(C(=O)NC23CC(NC(=O)COc4ccc(Cl)c(F)c4)(C2)C3)Oc2ccc(Cl)cc21` (centres unmarked) [Compound 189, methyl {[6-chloro-2-({3-[2-(4-chloro-3-fluorophenoxy)acetamido]bicyclo[1.1.1]pentan-1-yl}carbamoyl)-3,4-dihydro-2H-1-benzopyran-4-yl]amino}acetate] stands 10 to 50 nM. Under `O=C(COc1ccc(Cl)c(F)c1)NC12CC(NC(=O)[C@H]3Cc4ccccc4N3)(C1)C2` [Compound 128, (2R)—N-{3-[2-(4-chloro-3-fluorophenoxy)acetamido]bicyclo[1.1.1]pentan-1-yl}-2,3-dihydro-1H-indole-2-carboxamide] stands 50 to 250 nM.

For `O=C(COc1ccc(Cl)c(F)c1)NC12CC(NC(=O)[C@H]3COc4cc(Cl)ccc4O3)(C1)C2` [Compound 119, (2R)-6-chloro-N-{3-[2-(4-chloro-3-fluorophenoxy)acetamido]bicyclo[1.1.1]pentan-1-yl}-2,3-dihydro-1,4-benzodioxine-2-carboxamide], the EC50 is < 10 nM.

Consider `O=C(COc1ccc(Cl)c(F)c1)NC12CC(NC(=O)[C@@H]3CNc4cc(Cl)ccc4O3)(C1)C2` (single isomer, unassigned) [Compound 103], for which the EC50 was < 10 nM. The same measure for `O=C(COc1ccc(Cl)c(F)c1)NC12CCC(NC(=O)C3CC(O)c4cc(Cl)ccc4O3)(CC1)C[C@@H]2O` (stereo partly drawn) [Compound 199, 6-chloro-N-{(3S)-4-[2-(4-chloro-3-fluorophenoxy)acetamido]-3-hydroxybicyclo[2.2.2]octan-1-yl}-4-hydroxy-3,4-dihydro-2H-1-benzopyran-2-carboxamide]: < 10 nM. Regarding `O=C(COc1ccc(Cl)c(F)c1)NC12CC(NC(=O)C3CN(C(=O)c4ccncc4)c4cc(Cl)ccc4O3)(C1)C2` (centres unmarked) [Compound 169, 6-chloro-N-{3-[2-(4-chloro-3-fluorophenoxy)acetamido]bicyclo[1.1.1]pentan-1-yl}-4-(pyridine-4-carbonyl)-3,4-dihydro-2H-1,4-benzoxazine-2-carboxamide], the EC50 lay in the range of 250 to 500 nM. The same measure for `O=C(COc1ccc(Cl)c(F)c1)NC12CC(NC(=O)C3CC(=O)c4cc(Cl)ccc4O3)(C1)C2` (centres unmarked) [Compound 186, 6-chloro-N-{3-[2-(4-chloro-3-fluorophenoxy)acetamido]bicyclo[1.1.1]pentan-1-yl}-4-oxo-3,4-dihydro-2H-1-benzopyran-2-carboxamide]: < 10 nM; for `CN1CC(C(=O)NC23CCC(NC(=O)COc4ccc(Cl)c(F)c4)(CC2)[C@@H](O)C3)Oc2ccccc21` (stereo partly drawn) [Compound 111, N-{(3S)-4-[2-(4-chloro-3-fluorophenoxy)acetamido]-3-hydroxybicyclo[2.2.2]octan-1-yl}-4-methyl-3,4-dihydro-2H-1,4-benzoxazine-2-carboxamide]: 50 to 250 nM; for `O=C(COc1ccc(Cl)c(F)c1)NC12CC(NC(=O)C3CN(C(=O)c4ccc(OC(F)(F)F)cc4)c4cc(Cl)ccc4O3)(C1)C2` (centres unmarked) [Compound 143, 6-chloro-N-{3-[2-(4-chloro-3-fluorophenoxy)acetamido]bicyclo[1.1.1]pentan-1-yl}-4-[4-(trifluoromethoxy)benzoyl]-3,4-dihydro-2H-1,4-benzoxazine-2-carboxamide]: 500 to 2000 nM. `C[C@@]1(C(=O)NC23CC(NC(=O)COc4ccc(Cl)c(F)c4)(C2)C3)COc2cc3c(cc21)OC(F)(F)O3` [Compound 130, (7S)—N-{3-[2-(4-chloro-3-fluorophenoxy)acetamido]bicyclo[1.1.1]pentan-1-yl}-2,2-difluoro-7-methyl-6,7-dihydro-2H-furo[2,3-f][1,3]benzodioxole-7-carboxamide]: the 50% effective concentration (EC50) is > 2000 nM. Under `O=C(COc1ccc(Cl)c(F)c1)NC12CC(NC(=O)[C@@H]3CCc4cc(F)ccc4O3)(C1)C2` [Compound 121, (2S)—N-{3-[2-(4-chloro-3-fluorophenoxy)acetamido]bicyclo[1.1.1]pentan-1-yl}-6-fluoro-3,4-dihydro-2H-1-benzopyran-2-carboxamide] stands < 10 nM; under `CC(C)(C)OC(=O)CN1CC(C(=O)NC23CCC(NC(=O)COc4ccc(Cl)c(F)c4)(CC2)[C@@H](O)C3)Oc2ccc(Cl)cc21` (stereo partly drawn) [Compound 185, tert-butyl [6-chloro-2-({(3S)-4-[2-(4-chloro-3-fluorophenoxy)acetamido]-3-hydroxybicyclo[2.2.2]octan-1-yl}carbamoyl)-2,3-dihydro-4H-1,4-benzoxazin-4-yl]acetate], 50 to 250 nM. With `O=C(COc1ccc(Cl)c(F)c1)NC12CC(NC(=O)C3CNc4cc(Cl)ccc4O3)(C1)C2` (centres unmarked) [Compound 113, 6-chloro-N-{3-[2-(4-chloro-3-fluorophenoxy)acetamido]bicyclo[1.1.1]pentan-1-yl}-3,4-dihydro-2H-1,4-benzoxazine-2-carboxamide], the 50% effective concentration (EC50) is < 10 nM. The same measure for `CC1(C(=O)N2CC(C(=O)NC34CC(NC(=O)COc5ccc(Cl)c(F)c5)(C3)C4)Oc3ccc(Cl)cc32)CC1(F)F` (centres unmarked) [Compound 179, 6-chloro-N-{3-[2-(4-chloro-3-fluorophenoxy)acetamido]bicyclo[1.1.1]pentan-1-yl}-4-(2,2-difluoro-1-methylcyclopropane-1-carbonyl)-3,4-dihydro-2H-1,4-benzoxazine-2-carboxamide]: 500 to 2000 nM. Under `O=C(NC12CC(NC(=O)C3COc4cc(Cl)c(Cl)cc4O3)(C1)C2)c1ccc(OC(F)(F)F)cn1` (centres unmarked) [Compound 132, N-{3-[(6,7-dichloro-2,3-dihydro-1,4-benzodioxine-2-carbonyl)amino]bicyclo[1.1.1]pentan-1-yl}-5-(trifluoromethoxy)pyridine-2-carboxamide] stands 50 to 250 nM; under `O=C(COc1ccc(Cl)c(F)c1)NC12CC(NC(=O)C3CC(NCCO)c4cc(Cl)ccc4O3)(C1)C2` (centres unmarked) [Compound 188, 6-chloro-N-{3-[2-(4-chloro-3-fluorophenoxy)acetamido]bicyclo[1.1.1]pentan-1-yl}-4-[(2-hydroxyethyl)amino]-3,4-dihydro-2H-1-benzopyran-2-carboxamide], 10 to 50 nM. The same measure for `O=C(COc1ccc(Cl)c(F)c1)NC12CCC(NC(=O)[C@@H]3COc4ccccc4O3)(CC1)[C@@H](O)C2` [Compound 127, (2S)—N-{(2S)-4-[2-(4-chloro-3-fluorophenoxy)acetamido]-2-hydroxybicyclo[2.2.2]octan-1-yl}-2,3-dihydro-1,4-benzodioxine-2-carboxamide]: 10 to 50 nM. On to `COc1ccc(S(=O)(=O)N2CC(C(=O)NC34CC(NC(=O)COc5ccc(Cl)c(F)c5)(C3)C4)Oc3ccc(Cl)cc32)cc1` (centres unmarked) [Compound 164, 6-chloro-N-{3-[2-(4-chloro-3-fluorophenoxy)acetamido]bicyclo[1.1.1]pentan-1-yl}-4-(4-methoxybenzene-1-sulfonyl)-3,4-dihydro-2H-1,4-benzoxazine-2-carboxamide], for which the half-maximal effective concentration (EC50) was > 2000 nM. Take `O=C(COc1ccc(Cl)c(F)c1)NC12CC(NC(=O)C3COc4ccccc4O3)(C1)C2` (centres unmarked) [Compound 122, N-{3-[2-(4-chloro-3-fluorophenoxy)acetamido]bicyclo[1.1.1]pentan-1-yl}-2,3-dihydro-1,4-benzodioxine-2-carboxamide]: the concentration giving a half-maximal response (EC50) lay within 10 to 50 nM.
